These results are taken from article PMC9882606, “Rationally designed inhibitors of the Musashi protein-RNA interaction by hotspot mimicry” (Research Square, 2023).

SMILES strings stand for the structures.

Series [1] has as its system EGFR, SMAD3, and MSI2 protein levels. The series can be described thus: Immunoblot of MSI2 downstream targets in PC9 cells. Format: cell-based, human. To be noted: PC9, 5 μM or 20 μM, 48 hours. As for the experimental part:
(§1) Figure 7: Cellular characterization of MSI2 inhibition by R12–8–44–3. (A) Quantification of mRNA immunoprecipitation (RIP) results. Cells were treated with 10 μM of the indicated compounds for 8 hours. After immunoprecipitation with anti-MSI2, mRNA targets were quantified. The amount of each target mRNA in the pulldown was calculated relative to the input, and results from all targets were normalized to PTP4A1. Treating cells with R12–8–44–3 disrupted the interaction with all four cognate mRNAs (PTP4A, SMAD3, EGFR, and MSI2). Data are presented as the average ± S.E.M. from at least 3 independent replicates. […] Cells were treated with indicated compounds at two concentrations (5 μM and 20 μM) for 48 hours, then protein levels of relevant MSI2 targets were determined (EGFR, SMAD3, and MSI2). One representative image is shown; quantification is presented as the average ± S.E.M. from at least 3 independent replicates, normalized first to beta-actin and then to DMSO-treated cells. (C) Cell viability dose-response quantified by CellTiter-Blue after 3 days (left) and cell proliferation with 10μM of compounds quantified by clonogenic assay after 7 days (right). […] (D) Cell viability quantified by clonogenic assay of PC9 cell line after 7-day treatment with 2 nM osimertinib (osi alone), osimertinib with 10 μM R12–8–44–3, or osimertinib with 10 μM R12-neg. […]

Series [2] relates to PC9 cells. The series can be described thus: CellTiter-Blue, combination with osimertinib, PC9. The format is cell-based, human. The settings on record: PC9, 3-day treatment, osimertinib with 10 μM compound vs osimertinib alone. The source says: With respect to non-small cell lung cancer (NSCLC) specifically, overexpression of MSI2 has been identified as a mechanism underlying resistance to inhibitors of EGFR – and more importantly, depletion of MSI2 by RNA knockdown increased sensitivity to the third-generation EGFR inhibitor osimertinib both in vitro and in vivo [73, 74]. Despite lack of sensitivity to R12–8–44–3 alone, we therefore hypothesized that R12–8–44–3 would sensitize PC9 cells (an EGFR-mutant lung cancer cell line) to osimertinib.

In series [3] the test system is PC9 cells. The series can be described thus: CellTiter-Blue cell viability, PC9. Format: cell-based, human. To be noted: PC9, 3 days, dose-response. As for the experimental part:
as §1

For series [4], the target named is MSI2 (Homo sapiens, UniProt Q96DH6). In words: Cellular thermal shift assay (CETSA) in K562 cells. Format: cell-based. To be noted: K562, 3 hours, 20 μM or 40 μM, heated to 49 °C. The source says:
To explore the effect of these MSI2 inhibitors in a cancer-relevant cellular context, we selected two MSI2-dependent cancer cell lines: non-small cell lung cancer cell line PC9 and leukemia cell line K562 [73, 98–101]. Upon treatment of PC9 cells with Ro, R12–8–44–3, or negative control R12-neg, we found at multiple time points that cellular MSI2 protein levels were unchanged (Figure 6a). To confirm target engagement, we therefore adapted the cellular thermal shift assay (CETSA). […]
Figure 6: Direct cellular engagement of MSI2 interaction by R12–44–3. […] MSI2 protein abundance was then quantified and normalized to untreated sample. One representative image is shown; quantification is presented as the average ± S.E.M. from 3 independent replicates. […] Cells were briefly incubated at temperatures between 40 °C to 67 °C, then centrifuged and the amount of MSI2 remaining in the soluble fraction was quantified by Western blotting. […] One representative image is shown; quantification is presented as the average ± S.E.M. from 3 independent replicates, normalized first to beta-actin and then to DMSO control. […] One representative image is shown; quantification is presented as the average ± S.E.M. from 3 independent replicates, normalized first to beta-actin and then to DMSO control. […]

Chain of MSI2 (Q96DH6 whole entry): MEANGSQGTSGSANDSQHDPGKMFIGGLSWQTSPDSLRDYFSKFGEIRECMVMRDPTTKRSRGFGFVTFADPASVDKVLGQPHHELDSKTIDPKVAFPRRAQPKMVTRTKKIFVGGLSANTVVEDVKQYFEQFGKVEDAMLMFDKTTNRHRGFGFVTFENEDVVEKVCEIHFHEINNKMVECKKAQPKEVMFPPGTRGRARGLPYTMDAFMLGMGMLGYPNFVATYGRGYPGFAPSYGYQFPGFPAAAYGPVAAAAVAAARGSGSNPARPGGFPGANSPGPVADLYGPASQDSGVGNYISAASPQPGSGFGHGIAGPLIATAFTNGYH

For the molecule `Cc1cc(C(=O)OCc2nc(N)c3c(C)c(C)sc3n2)c(N)cc1F` [R12–8–44–3], in series [1], the “SMAD3 and EGFR protein levels” value is recorded as “phenocopied the effect of MSI2 depletion on these two targets”; the “amount of MSI2 protein” value is “without changing the amount of MSI2”. The “cell viability (CellTiter-Blue) in combination with osimertinib” value in series [2] was “small but statistically significant decrease in cell viability”. Besides, the “cell viability (CellTiter-Blue)” value in series [3] was “no effect on cell growth/survival”. In series [4], the “soluble MSI2 after heating (CETSA)” value is “confers protection against thermal-induced aggregation”.
